Reference: US9687459B2, “Aminocyclobutane derivatives, method for preparing same and the use thereof as drugs” (priority 2012, dated 2017)
Where “and” joins values, the source holds several entries; their conditions need not be identical. Identical values can stand only once. Like-named read-outs stand apart in the source and are kept apart here.

Tests used:
[1] = biological target: T1, recombinant human NMDA receptors constructed from NR1 and NR2B sub-units (Homo sapiens, UniProt Q05586+Q13224); experiment: Inhibition of NMDA current in Xenopus ovocytes, two electrode voltage clamp; assay type: cell-based
T1 construct: expressed in transfected cells; host or cells: Xenopus laevis oocytes injected with cRNA transcribed from pGEMHE constructs
Excerpt: We examined the effects of the compounds of the invention on inhibition of the NMDA current in Xenope (Xenopus laevis) expressing recombinant human NMDA receptors constructed from NR1 and NR2B sub-units. The currents produced by stimulation of these receptors by means of endogenous agonists were studied according to the two electrode voltage clamp technique reported by Planells-Cases et al., 2002, J. Pharmacol. Exp. Ther., 302, 163-173.
Protocol: ovocytes were surgically removed from adults xenopes, enzymatically defolliculated and stored at 17° C. in a solution containing: 96 mM of NaCl, 2 mM of KCl, 1 mM of MgCl2, 1.8 mM of CaCl2 and 5 mM of HEPES at pH 7.5 (NaOH) and 50 mg/L of gentamycin (Heusler et al., 2005, Neuropharmacology, 49, 963-976). Complementary DNA (cDNA) coding for the NR1 sub-unit was cloned by PCR using primers targeted for start and end codons in the published sequence (Genebank access number M_007327). cDNA coding for the NR2B sub-unit was synthesised by Eurogentec (Seraing, Belgium) according to the published sequence (gene bank access number NM_000834). The NR1 and NR2B cDNA was then sub-cloned in the pGEMHE high expression carrier for in vitro transcription of cDNA. cRNA coding for NR1 and NR2B was prepared according to the method described by Heusler et al. (already cited). Aliquots of the cRNA solution were injected into the ovocytes ([…] for NR1 and 40-1000 pg/ovocyte for NR2B). Each ovocyte was injected with 100 nL of a solution containing: 4 mM of Na^+BAPTA (pH 7.2) in order to block all residual chlorine currents. After stabilisation, NMDA currents were activated by superfusion of glutamate and glycine each at a concentration of 10 μM. The compounds to be tested were then superfused in a Ringer Ba^++ solution at increasing concentrations in the presence of glutamate and glycine (4 to 5 concentrations were tested per ovocyte). The concentration-response codes obtained are analysed for each ovocyte by non-linear regression and a pIC50 value was calculated. pIC50 designates the negative logarithm of the compound concentration tested needed to reduce the amplitude of the NMDA current by half.

[2] = system: acute inflammatory pain model in the rat; settings: for Paw licking % reduction at 40 mg/kg / Paw licking inhibition at 40 mg/kg (in words): 40 mg/kg ip, late phase; for Paw licking MSD (minimum significant dose): ip 15 min before formaldehyde, late phase 22.5-27.5 min
[3] = system: forced swimming model in the rat; experiment: Forced swimming test, immobility time; assay type: in vivo; settings: for Immobility time % reduction at 20 mg/kg: 20 mg/kg ip; for ED50: ip 30 min before test, dose reducing immobility time by half relative to controls
Experimental: This height allows the rats to swim or to float without their paws touching the base of the cylinder. 24 hours before the test day, the rats are placed in the cylinder for 15 min, after which time they no longer attempt to escape and remain immobile at the surface. On the test day, the compound to be tested or the carrier is injected (ip) into the animal which is placed in the cylinder 30 min later. The duration of immobility (defined when the rat simply floats and only makes small movements to stay at the surface) is measured with an accuracy of 0.1 s for 5 minutes.

[4] = system: pre-pulse inhibition of the jolt reflex in the rat; experiment: Pre-pulse inhibition test for the jolt reflex (PPI); assay type: in vivo; settings: FIG. 1
Excerpt: We have already highlighted the importance of normalising the NMDA receptor function, in other words blocking its excessive activity without interfering, or interfering as little as possible, with its normal physiological functioning. As a marker of the interaction between the products of the invention and the normal functioning of the NMDA receptors, we chose the pre-pulse inhibition test for the jolt reflex (PPI). This test represents a measurement of the organism's capacity to filter non-essential information. Non-competitive and competitive antagonists as well as channel blockers reduce PPI in the rat (Depoortere et al., 1999, Behav. Pharmacol., 10, 51-62), such a reduction being considered to be predictive of the psychotomimetic effects of NMDA antagonists in humans.
Protocol: Male rats (Sprague-Dawley Iffa Credo, Les Oncins, France) were placed in 18.4 cm by 8.8 cm diameter cylinders resting on a base below which a piezoelectric accelerometer is fixed to act as a detector of the jolt reaction. This is enclosed in a box with a loudspeaker attached to the ceiling to deliver sound pulses and pre-pulses, and is acoustically isolated (SR LAB, San Diego Instruments, San Diego, USA). All the events are controlled by means of software. […] Three types of sound stimuli (white noise) are delivered; 1) a pulse of 118 dB (P, duration 40 msec); 2) a pre-pulse of 78 dB (duration 20 msec) followed by a pulse of 118 dB (pP); and 3) no pre-pulse or pulse (NP). The interval between the beginning of the pre-pulse and the beginning of the pulse is 100 msec, with background noise at 70 dB. The jolt reaction is recorded for 100 ms, 100 ms after the beginning of the stimulus (pP or NP) by a numerical/analogue acquisition card (12 bits). The session starts with a stimulus-free period of 5 min after which animals are exposed to 10 P (separated on average by 15 s and intended to stabilise the jolt reaction). The reactions recorded with these 10 P are not used for the calculation. After this, 10 P, 10 pP and 3 NP are delivered in a semi-random order with an average interval of 15 s in between. At the end of this pre-test, rats undergo an ip injection of the compounds to be tested or physiological serum as a control and are returned to their cages. The actual test session (similar on every point to the pre-test) is carried out 60 minutes later. The percentage inhibition of the pre-pulse is calculated using data from this test session according to the formula: (median amplitude P−median amplitude pP)×100/(median amplitude P).

[5] = ovocytes expressing human NR1/NR2B, glutamate and glycine each 10 μM, read-out: Inhibition of NMDA current pIC50 (converted)

T1 sequence (Q13224 27-1484, other chains not shown): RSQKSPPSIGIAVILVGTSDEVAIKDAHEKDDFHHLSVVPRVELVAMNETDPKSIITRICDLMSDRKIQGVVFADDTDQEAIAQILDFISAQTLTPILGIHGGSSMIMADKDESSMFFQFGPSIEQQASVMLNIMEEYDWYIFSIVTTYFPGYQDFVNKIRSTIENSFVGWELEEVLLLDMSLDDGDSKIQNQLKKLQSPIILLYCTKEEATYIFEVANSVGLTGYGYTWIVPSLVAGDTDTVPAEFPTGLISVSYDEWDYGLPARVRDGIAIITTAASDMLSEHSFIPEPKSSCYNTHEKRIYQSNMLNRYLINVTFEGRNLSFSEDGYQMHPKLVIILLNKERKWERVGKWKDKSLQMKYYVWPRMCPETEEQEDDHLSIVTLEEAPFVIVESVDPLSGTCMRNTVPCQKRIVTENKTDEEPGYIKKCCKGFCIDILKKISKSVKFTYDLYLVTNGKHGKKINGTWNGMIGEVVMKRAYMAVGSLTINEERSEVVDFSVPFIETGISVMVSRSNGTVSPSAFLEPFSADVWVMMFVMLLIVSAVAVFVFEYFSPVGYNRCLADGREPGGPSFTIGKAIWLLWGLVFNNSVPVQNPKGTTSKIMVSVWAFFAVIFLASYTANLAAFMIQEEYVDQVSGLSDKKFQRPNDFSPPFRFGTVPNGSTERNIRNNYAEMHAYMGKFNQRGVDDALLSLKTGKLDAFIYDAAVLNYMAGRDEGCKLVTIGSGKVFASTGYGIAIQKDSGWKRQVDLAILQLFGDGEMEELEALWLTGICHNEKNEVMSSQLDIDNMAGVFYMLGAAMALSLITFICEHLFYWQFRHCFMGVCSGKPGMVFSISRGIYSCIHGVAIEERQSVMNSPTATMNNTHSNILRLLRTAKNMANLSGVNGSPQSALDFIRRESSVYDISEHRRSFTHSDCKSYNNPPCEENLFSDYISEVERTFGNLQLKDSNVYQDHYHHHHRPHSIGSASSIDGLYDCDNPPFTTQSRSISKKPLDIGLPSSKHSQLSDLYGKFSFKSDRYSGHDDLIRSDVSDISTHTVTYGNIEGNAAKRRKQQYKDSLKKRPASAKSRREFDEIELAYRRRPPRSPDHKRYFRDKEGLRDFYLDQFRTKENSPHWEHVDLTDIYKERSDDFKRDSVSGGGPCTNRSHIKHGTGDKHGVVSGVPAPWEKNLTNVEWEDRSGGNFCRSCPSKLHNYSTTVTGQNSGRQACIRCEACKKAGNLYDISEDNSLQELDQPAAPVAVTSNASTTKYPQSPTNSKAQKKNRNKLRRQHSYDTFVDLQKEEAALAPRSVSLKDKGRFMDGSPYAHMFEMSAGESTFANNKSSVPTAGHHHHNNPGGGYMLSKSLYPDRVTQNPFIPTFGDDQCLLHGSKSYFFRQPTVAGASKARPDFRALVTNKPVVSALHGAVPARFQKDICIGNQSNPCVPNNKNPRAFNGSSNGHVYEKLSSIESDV

CCN(CC)C(=O)[C@]1(c2ccccc2F)C[C@@H](N)C1 [Compound 1b, trans-3-amino-N,N-diethyl-1-(2-fluorophenyl)-cyclobutanecarboxamide]
IC50 [1, 5]: 501 nM

CCN(CC)C(=O)[C@]1(c2cccc(Cl)c2)C[C@@H](N)C1 [Compound 1e, trans-3-amino-N,N-diethyl-1-(3-chlorophenyl)-cyclobutanecarboxamide]
Paw licking % reduction at 40 mg/kg [2]: 100%
Paw licking inhibition at 40 mg/kg (in words) [2]: completely inhibited
Paw licking MSD (minimum significant dose) [2]: 10 mg/kg
IC50 [1]: 79.4 nM
Immobility time % reduction at 20 mg/kg [3]: 77%
ED50 [3]: 15 mg/kg

CCN(CC)C(=O)[C@]1(c2ccccc2)C[C@@H](N)C1 [Compound 1a1, trans-3-amino-N,N-diethyl-1-phenylcyclobutanecarboxamide]
Paw licking % reduction at 40 mg/kg [2]: 100%
Paw licking inhibition at 40 mg/kg (in words) [2]: completely inhibited
Paw licking MSD (minimum significant dose) [2]: 10 mg/kg
IC50 [1, 5]: 501 nM
Reduction in PPI at 20 mg/kg ([4]; 20 mg/kg ip, test 60 min after injection): 30%
PPI reduction at 40 mg/kg (in words) ([4]; 40 mg/kg): modest
Dose from which PPI is disrupted ([4]; ip): ≥ 20 mg/kg

CCN(CC)C(=O)[C@]1(c2cccc(F)c2)C[C@@H](N)C1 [Compound 1c, trans-3-amino-N,N-diethyl-1-(3-fluorophenyl)-cyclobutanecarboxamide]
IC50 [1, 5]: 158 nM
Immobility time % reduction at 20 mg/kg [3]: 83%
ED50 [3]: 13 mg/kg

CCN(CC)C(=O)[C@]1(c2cccc(OC)c2)C[C@@H](N)C1 [Compound 1d, trans-3-amino-N,N-diethyl-1-(3-methoxyphenyl)-cyclobutanecarboxamide]
IC50 [1, 5]: 398 nM

CNC1(c2ccccc2Cl)CCCCC1=O (stereo not drawn) [ketamine, reference compound]
Paw licking % reduction at 40 mg/kg ([2]; 40 mg/kg): 74% and 75%
Paw licking MSD (minimum significant dose) [2]: 40 mg/kg
IC50 [1]: 794 nM
Immobility time % reduction at 20 mg/kg [3]: 50%
ED50 [3]: 20 mg/kg
Effect on PPI at 20 mg/kg (in words) ([4]; 20 mg/kg ip): total disappearance of PPI
